Data from PubChem BioAssay AID1996.
≈ marks a conversion by molar mass, not a printed value.

Details: buffer; pH 7.4; 200.0 µM

Row | solubility kinetic | SMILES
1 | < 0.8 µg/mL | COc1cccc(C(=O)COc2ccc(NC(=O)c3ccccc3)cc2)c1
2 | 5.6 µg/mL (≈ 17.6 µM) | CCOc1ccccc1C(=O)NCC(=O)NCC1CCCCC1
3 | 0.4 µg/mL (≈ 1.31 µM) | O=Cc1cn(CC(=O)N2CCc3ccccc32)c2ccccc12
4 | > 43.9 µg/mL | Cc1ccc(SCC(=O)N2CCC(C(N)=O)CC2)cc1
5 | < 0.7 µg/mL | Brc1cc2c(cc1-c1nc3ccccc3s1)OCO2
6 | 6.8 µg/mL (≈ 20.6 µM) | Cc1cc(Cl)nc(Cl)c1C(=O)NCc1ccc(Cl)cc1
7 | > 44.9 µg/mL | Cc1ccsc1/C=C(\CC(=O)O)c1nc2ccccc2o1
8 | 32.5 µg/mL (≈ 126 µM) | O=C(CNC(=O)c1ccccc1F)c1ccccc1
9 | 3.5 µg/mL (≈ 12 µM) | CC(=O)C1=C(C)NC(=S)NC1c1cccc([N+](=O)[O-])c1 (stereo not drawn)
10 | > 75.7 µg/mL | CN1CCN(c2ccc(S(=O)(=O)N3CCOCC3)cc2NC(=O)CSCc2ccccc2)CC1
11 | 44.8 µg/mL (≈ 132 µM) | CCC(Sc1nc(-c2ccccc2)c(-c2ccccc2)[nH]1)C(=O)O (stereo not drawn)
12 | 44 µg/mL (≈ 136 µM) | CCOC(=O)N1CCN(Cc2nc(-c3cccs3)no2)CC1
13 | > 46.1 µg/mL | CCC(C)C(NC(N)=O)C(=O)Nc1ccc(C(=O)OC)cc1 (stereo not drawn)
14 | 32.9 µg/mL (≈ 114 µM) | O=C(CCCc1ccccc1)NCc1ccccc1Cl
15 | 44.3 µg/mL (≈ 137 µM) | CCOC(=O)N1CCN(C(=O)C(C)NC(=O)c2ccco2)CC1 (stereo not drawn)
16 | > 49.6 µg/mL | O=C(CCCN1C(=O)C2CC=CCC2C1=O)Nc1ccccc1F (stereo not drawn)
17 | > 53.6 µg/mL | COC(=O)C(Cc1ccc(O)cc1)NC(=O)c1ccc2c(c1)OCCO2 (stereo not drawn)
18 | 23.1 µg/mL (≈ 70.7 µM) | Clc1ccc(-c2nc3cc(CN4CCCCC4)ccc3o2)cc1
19 | > 41 µg/mL | C/C(=C\c1cccs1)C(=O)c1c(C)cc(C)[nH]c1=O
20 | > 43.4 µg/mL | C=CCNC(=O)c1cc(-c2cccnc2)nc2ccccc12
21 | > 47.9 µg/mL | CSCCC(NC(=O)c1ccco1)C(=O)Nc1ccncc1 (stereo not drawn)
22 | 4.1 µg/mL (≈ 13.6 µM) | Cc1ccc(CC(=O)Nc2ccc(F)c([N+](=O)[O-])c2)cc1C
23 | 7.1 µg/mL (≈ 21.7 µM) | CC(OC(=O)C1=Cc2ccccc2OC1)C(=O)NCc1ccco1 (stereo not drawn)
24 | 44.8 µg/mL (≈ 139 µM) | CN1CCN(CCCNC(=O)Nc2ccc([N+](=O)[O-])cc2)CC1

Row | solubility kinetic | SMILES
25 | 29.1 µg/mL (≈ 116 µM) | CN(C(=O)c1ccoc1)c1ccc2ccccc2c1
26 | > 45.5 µg/mL | COc1ccc(N2C(=O)CSC2c2ccc(F)cc2)cc1 (stereo not drawn)
27 | 16.8 µg/mL (≈ 61.2 µM) | CC(=O)c1sc(NC(=O)c2cccc(C)c2)nc1C
28 | 2.2 µg/mL (≈ 7.47 µM) | CCn1c(/C=C/c2ccccc2F)nc2ccccc2c1=O
29 | 1.9 µg/mL (≈ 5.33 µM) | CN(CC(=O)Nc1cccc(F)c1)C(=O)COc1ccc2c(c1)CCC2
30 | > 39.6 µg/mL | Cc1ccc(NC(=O)N[C@H](C(=O)O)C(C)C)c(C)c1
31 | 35.5 µg/mL (≈ 115 µM) | CC(C)OCCCNC1=C(Cl)C(=O)c2ccccc2C1=O
32 | 45.8 µg/mL (≈ 133 µM) | CC(C)CC(=O)NC1(C(F)(F)F)NC(=O)N(c2ccccc2)C1=O (stereo not drawn)
33 | > 47.7 µg/mL | Cc1oc(C(C)(C)C)c(CN2CCOCC2)c1C(=O)O.Cl
34 | > 33.2 µg/mL | CCNC(=S)Nc1ccc2ncoc2c1
35 | 37.6 µg/mL | Cl.OC1(c2ccccc2)CCN(Cc2ccccc2)CC1
36 | 34.3 µg/mL (≈ 119 µM) | CN1CCN(Cc2nc3ccccc3n2C)CC1CCO (stereo not drawn)
37 | > 46.9 µg/mL | COc1ccc(CCN2Cc3c(N)cccc3C2=O)cc1OC
38 | 1.3 µg/mL (≈ 4.81 µM) | Cc1cc2ccccn2c1C(=O)c1ccc([N+](=O)[O-])o1
39 | > 47.6 µg/mL | O=C(O)c1cc(-c2ccc3ccccc3c2)nc2ccc(F)cc12
40 | 38.2 µg/mL (≈ 103 µM) | COc1cc(C(=O)OCC2CC(c3ccccc3)=NO2)cc(OC)c1OC (stereo not drawn)
41 | 27.5 µg/mL (≈ 119 µM) | COc1ccc(OCC(=O)C2CC2)c(C#N)c1
42 | 8.1 µg/mL (≈ 22.4 µM) | COc1ccccc1C(=O)N(C1=NC(C)CS1)c1ccc(Cl)cc1 (stereo not drawn)
43 | > 50 µg/mL | CC(NC(=O)CSc1ccccc1C(=O)O)C1CC2CCC1C2 (stereo not drawn)
44 | 39.8 µg/mL (≈ 122 µM) | Cc1ccccc1OCC(=O)NCCCNC(=O)c1ccncc1
45 | < 0.4 µg/mL | Oc1c(Cl)cc(Cl)cc1C1Nc2ccccc2-n2cccc21 (stereo not drawn)
46 | 0.3 µg/mL (≈ 0.805 µM) | CC(C)Cc1nc2sc3c(SCC(N)=O)ncnc3c2c2c1CCC2
47 | 47.9 µg/mL (≈ 133 µM) | COc1cccc(S(=O)(=O)Nc2cccc(C(=O)N3CCCC3)c2)c1
48 | > 46.6 µg/mL | O=C1COc2ccc(S(=O)(=O)N3CCCCCC3)cc2N1

Row | solubility kinetic | SMILES
49 | > 44.5 µg/mL | CCCn1c(C)nnc1SCC(=O)NC1CCCCC1
50 | 8.7 µg/mL (≈ 25.3 µM) | COc1ccc(NC(=S)Nc2cc(C(F)(F)F)ccc2F)cc1
51 | 21.3 µg/mL (≈ 60.8 µM) | CC(C)(C)c1csc(NC(=O)c2c(F)c(F)c(F)c(F)c2F)n1
52 | 42.4 µg/mL (≈ 146 µM) | Cc1nonc1NC(=O)CSc1nc2ccccc2o1
53 | 16.5 µg/mL (≈ 49 µM) | Cc1cccc(CC2CC(=O)N(c3nc4ccccc4s3)C2=O)c1 (stereo not drawn)
54 | 10 µg/mL (≈ 30.6 µM) | CC(C)CCSc1cc(NCCO)c([N+](=O)[O-])c2nonc12
55 | 1.4 µg/mL (≈ 4.41 µM) | O=C(Nc1ccc(Br)cn1)c1ccc(Cl)s1
56 | > 53.5 µg/mL | COc1ccc(CCN(C)C2CCCN(S(C)(=O)=O)C2)cc1OC (stereo not drawn)
57 | > 58 µg/mL | Cc1nnc(NC(=O)C2CCN(S(=O)(=O)c3ccc(F)c(F)c3)CC2)o1
58 | 9.7 µg/mL (≈ 31.6 µM) | O=Cc1ccccc1OCCCOc1cccc2cccnc12
59 | < 0.2 µg/mL | O=C(Nc1nc(-c2cccnc2)cs1)c1ccccc1F
60 | 30.7 µg/mL (≈ 86.9 µM) | Cc1ccccc1-n1c(=S)[nH]c2nc3c(cc2c1=O)COC(C)(C)C3
61 | 22.4 µg/mL (≈ 118 µM) | CCC(=O)N1CCCc2ccccc21
62 | 13.3 µg/mL (≈ 46.5 µM) | Cc1cc(C)nc(NC(=O)c2ccc([N+](=O)[O-])c(C)c2)n1
63 | > 47 µg/mL | CN(C)CCCNC(=O)c1cc(C(=O)Cc2ccccc2)c[nH]1
64 | 21.6 µg/mL (≈ 77.9 µM) | O=c1ccnc(SCCc2ccc([N+](=O)[O-])cc2)[nH]1
65 | > 42.3 µg/mL | O=C1COc2ccc(S(=O)(=O)N3CCCC3)cc2N1
66 | > 43.3 µg/mL | Cc1ccc2c(c1)N(CC(=O)N1CCCCC1)C(=O)CO2
67 | 0.3 µg/mL (≈ 0.854 µM) | COc1ccc(-c2nc3ncccc3o2)cc1NC(=O)c1cccs1
68 | 3.9 µg/mL (≈ 13.6 µM) | O=c1c2[nH]c3ccc(F)cc3c2ncn1CC1CCCO1 (stereo not drawn)
69 | 25.3 µg/mL (≈ 72.2 µM) | COc1ccc(C(=O)CN2C(=O)NC3(CCc4ccccc43)C2=O)cc1 (stereo not drawn)
70 | 46.7 µg/mL (≈ 137 µM) | COc1ccc(NC(=O)CCN2C(=O)[C@@H]3[C@H](C2=O)[C@H]2C=C[C@@H]3C2)cc1
71 | 32.3 µg/mL (≈ 114 µM) | O=C(CCSc1ccc(Cl)cc1)NC1CCCC1
72 | > 46.7 µg/mL | O=C(CSc1nccc(=O)[nH]1)Nc1ccc2ccccc2c1

Row | solubility kinetic | SMILES
73 | 0.8 µg/mL (≈ 2.31 µM) | COc1ccc(NS(=O)(=O)c2ccc(-c3ccccn3)s2)cc1
74 | 12.2 µg/mL (≈ 37.2 µM) | COc1cc2[nH]c(=S)nc(NCc3cccnc3)c2cc1OC
75 | > 51.5 µg/mL | CC(=O)c1sc2nsc(SCCN3CCOCC3)c2c1N
76 | > 47.3 µg/mL | COc1ccccc1OCc1ccc(C(=O)N2CCCCC2)o1
77 | 1.8 µg/mL (≈ 5.53 µM) | Cc1cc(C)nc(/N=C(\NC(=O)C(C)(C)C)Nc2ccccc2)n1
78 | 10.1 µg/mL (≈ 30.3 µM) | COC(=O)c1ccc(CNC(=O)COC(=O)c2cccs2)cc1
79 | > 51.7 µg/mL | c1ccc(N2CCN(Cc3cnc(N4CCOCC4)s3)CC2)cc1
80 | 2.7 µg/mL (≈ 10.1 µM) | COc1cc([N+](=O)[O-])cc2sc(NC(C)=O)nc12
81 | > 60.1 µg/mL | O=C(NCCc1c[nH]c2ccccc12)/C(=C/c1cccnc1)NC(=O)c1ccco1
82 | > 48.2 µg/mL | O=C(O)c1ccc([N+](=O)[O-])c(CS(=O)(=O)c2ccccc2)c1
83 | > 29.7 µg/mL | COC(=O)C/C(N)=C(\C#N)C(=O)OC
84 | 4.7 µg/mL (≈ 13.6 µM) | CCOC(=O)c1ccc(NC(=O)CCC(=O)NCc2ccco2)cc1
85 | > 34.4 µg/mL | O=[N+]([O-])c1ccc(NCc2ccncc2)cc1
86 | 19.1 µg/mL (≈ 74.8 µM) | NC(=O)COC(=O)c1ccc(-c2ccccc2)cc1
87 | > 58.1 µg/mL | COc1ccc(CC(=O)OCC(=O)NCc2ccc3c(c2)OCO3)cc1OC
88 | > 50.8 µg/mL | CC(C)=C(NC(=O)c1ccccc1)C(=O)Nc1cccc(C(=O)O)c1
89 | > 52.8 µg/mL | O=C(Nc1ccc(Cl)cc1Cl)N1CCN(c2ncccn2)CC1
90 | > 42.8 µg/mL | CC(C(=O)NCc1cccnc1)c1ccc([N+](=O)[O-])cc1 (stereo not drawn)
91 | < 0.3 µg/mL | O=[N+]([O-])c1cc(Cl)ccc1Nc1ccccc1
92 | 4.4 µg/mL (≈ 13.8 µM) | N#Cc1ccccc1NC(=O)COC(=O)c1c[nH]c2ccccc12
93 | > 55.1 µg/mL | COc1ccc(C(=O)C(C)OC(=O)CN2C(=O)c3ccccc3C2=O)cc1 (stereo not drawn)
94 | > 43.5 µg/mL | CCNC(=O)COC(=O)Cc1ccc(Cl)cc1Cl
95 | 15.8 µg/mL (≈ 56.2 µM) | CC(C)n1c(NCc2ccccc2O)nc2ccccc21
96 | > 46.6 µg/mL | CC1CC(C)CN(C(=O)COC(=O)c2ccc(Cl)nc2)C1 (stereo not drawn)

Row | solubility kinetic | SMILES
97 | 46.2 µg/mL (≈ 132 µM) | Cc1onc(-c2ccccc2)c1CNC(=O)C1COc2ccccc2O1 (stereo not drawn)
98 | > 35.3 µg/mL | CC1(c2ccc([N+](=O)[O-])cc2)NC(=O)NC1=O (stereo not drawn)
99 | 0.3 µg/mL (≈ 0.939 µM) | CC(C)Nc1nc(N)c(C(=O)C23CC4CC(CC(C4)C2)C3)s1
100 | 34.8 µg/mL (≈ 142 µM) | CCC(NC(=O)C1CCCC1)c1ccc(C)cc1 (stereo not drawn)
101 | 30.7 µg/mL (≈ 103 µM) | CC(C)N(C(=O)COC(=O)c1ccc(Cl)nc1)C(C)C
102 | 33.1 µg/mL (≈ 83.2 µM) | Cc1cc(C)c(NC(=O)CN2C(=O)NC3(CCc4ccccc43)C2=O)c(Cl)c1 (stereo not drawn)
103 | > 36 µg/mL | C/C(=N\S(=O)(=O)c1ccc(C)cc1)N(C)C
104 | > 50 µg/mL | CCC(C)NC(=O)C1CCN(S(=O)(=O)N2CCOCC2)CC1 (stereo not drawn)
105 | 7.5 µg/mL (≈ 23.6 µM) | CCOc1ccccc1NC(=O)COc1cccnc1[N+](=O)[O-]
106 | > 45.5 µg/mL | CC(=O)Nc1ccc(NC(=O)Cn2ccc([N+](=O)[O-])n2)cc1
107 | > 50.3 µg/mL | CC1CCN(C(=O)COC(=O)CCC(=O)c2ccc(F)cc2)CC1
108 | > 43.9 µg/mL | O=S(=O)(c1ccc(Cl)cc1)n1cnc2ccccc21
109 | 46.9 µg/mL (≈ 145 µM) | COc1ccc(NC(=O)CS(=O)(=O)c2ccc(F)cc2)cc1
110 | > 44.6 µg/mL | COC(=O)C(Cc1ccccc1)N1CCS(=O)(=O)CC1 (stereo not drawn)
111 | 4.6 µg/mL (≈ 17.9 µM) | COc1ccc(C)cc1NC(=O)Nc1ccncc1
112 | > 41.3 µg/mL | O=C(COC(=O)c1ccccc1O)NCc1ccco1
113 | < 0.6 µg/mL | CC(C)(C)c1ccc(C(=O)NCc2ccccc2)cc1
114 | 0.4 µg/mL (≈ 1.27 µM) | CC(C)(C)Nc1c(-c2ccc(O)cc2)nc2ccc(Cl)cn12
115 | > 45.2 µg/mL | CN1CCN(c2ccccc2NC(=O)c2cccs2)CC1
116 | > 49 µg/mL | COc1ccc(C(=O)N2CCC3(CC2)NCCc2[nH]cnc23)cc1

Row | SMILES | solubility kinetic
117 | C1CCC2S[C@H]3CCCCC3NC2C1 (stereo partly drawn) | 25.3 µg/mL (≈ 120 µM)
118 | O=C(c1cn(Cc2ccccc2F)c2ncccc12)C(F)(F)F | 2.8 µg/mL (≈ 8.69 µM)
